Our source for the TGI values is PubChem BioAssay (NCI).

Test systems include NCI-H226 lung; NCI/ADR-RES ovarian; SN12C renal; SNB-19 CNS; MCF7 breast; LOX IMVI melanoma; HT29 colon; OVCAR-8 ovarian; IGROV1 ovarian; RXF 393 renal; SK-OV-3 ovarian; COLO 205 colon; SF-295 CNS; SNB-75 CNS; BT-549 breast; SR leukemia; MDA-MB-435; DU-145 prostate; HS 578T breast; T-47D breast.
Experiment in all cases: NCI anticancer screen, dose series, 48 h

Each structure is given as a SMILES string.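 Test compounds were applied to cells in 96-well plates for 48 hours at 5 doses. TGI is the concentration that stops growth completely.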

Consider `O=P1(Oc2ccc(Cl)cc2Cl)Oc2ccc3ccccc3c2-c2c(ccc3ccccc23)O1`, for which the TGI in the experiment with NCI-H226 lung was 59.8 µM; with NCI/ADR-RES ovarian, over 100 µM; with SN12C renal, over 100 µM; with SNB-19 CNS, 82.8 µM; with MCF7 breast it was over 100 µM; in the experiment on LOX IMVI melanoma, 53.9 µM. Moreover, the TGI in the experiment with HT29 colon was over 100 µM; with OVCAR-8 ovarian, over 100 µM; with IGROV1 ovarian, over 71.8 µM; with RXF 393 renal, 34.7 µM; in the experiment on SK-OV-3 ovarian it was over 100 µM; in the experiment with COLO 205 colon, over 100 µM. Also, the TGI in the experiment with SF-295 CNS was over 94.7 µM; with SNB-75 CNS, 85 µM.
`Clc1nssc1=Nc1nonc1-c1ccccc1`: the TGI with NCI-H226 lung is over 100 µM; in the experiment with NCI/ADR-RES ovarian, 98.3 µM; in the experiment on SN12C renal, 42.4 µM; in the experiment with SNB-19 CNS, over 100 µM; in the experiment on MCF7 breast, over 100 µM; with LOX IMVI melanoma, over 100 µM. For the same molecule, the TGI is 52.2 µM in the experiment on HT29 colon; 89.8 µM with BT-549 breast; over 100 µM in the experiment with OVCAR-8 ovarian; 68.6 µM in the experiment with SR leukemia; 82 µM with IGROV1 ovarian; 59.6 µM in the experiment on RXF 393 renal. For the same molecule, the TGI is over 100 µM with SK-OV-3 ovarian; 36.7 µM with COLO 205 colon; over 100 µM in the experiment with SF-295 CNS; 64.2 µM in the experiment with SNB-75 CNS; over 100 µM in the experiment on MDA-MB-435; 53.5 µM in the experiment on DU-145 prostate.
Turning to `CC(=O)NC1=C(NC(C)(C)C)C(=O)c2ccccc2C1=O`, the TGI in the experiment on NCI-H226 lung is 27.6 µM; with SN12C renal, 34.8 µM; in the experiment on SNB-19 CNS, over 100 µM; in the experiment with LOX IMVI melanoma, 30.8 µM; with HT29 colon, 49.7 µM; with OVCAR-8 ovarian it was 39.5 µM. The TGI with IGROV1 ovarian was 70.4 µM; with RXF 393 renal it was 33.3 µM; in the experiment with SK-OV-3 ovarian, over 100 µM; with COLO 205 colon, over 100 µM; in the experiment with SF-295 CNS, over 100 µM; with SNB-75 CNS it was 26.5 µM.
In the case of `C=CCN1C(=O)/C(=C\c2cc(C(C)(C)C)c(O)c(C(C)(C)C)c2)NC1=S`, the TGI with NCI-H226 lung is 74.9 µM; in the experiment with NCI/ADR-RES ovarian, over 100 µM; in the experiment on SN12C renal it was over 100 µM; in the experiment with SNB-19 CNS, over 100 µM; in the experiment with MCF7 breast it was 90.5 µM; in the experiment on LOX IMVI melanoma, 31.6 µM. Further, the TGI in the experiment with HT29 colon is 80.7 µM; in the experiment on BT-549 breast it was over 100 µM; with HS 578T breast, over 100 µM; in the experiment on OVCAR-8 ovarian it was over 100 µM; in the experiment on SR leukemia it was over 100 µM; with IGROV1 ovarian it was over 100 µM. Also, the TGI is over 100 µM in the experiment with SK-OV-3 ovarian; 32.4 µM with COLO 205 colon; 68.3 µM in the experiment on SF-295 CNS; 70.8 µM in the experiment on MDA-MB-435; 90.3 µM in the experiment on DU-145 prostate.
Regarding `Nn1c(CCCCCCCCc2nnc(COc3ccc4ccccc4c3O)n2N)nnc1COc1ccc2ccccc2c1O`, the TGI in the experiment on NCI-H226 lung was 79.1 µM; with NCI/ADR-RES ovarian it was 60.7 µM; in the experiment on SN12C renal, over 100 µM; in the experiment on SNB-19 CNS, over 100 µM; with MCF7 breast it was over 100 µM; in the experiment on HT29 colon it was over 100 µM. Moreover, the TGI with BT-549 breast is 69.5 µM; in the experiment on IGROV1 ovarian, 38.3 µM; in the experiment on RXF 393 renal, 80.3 µM; in the experiment with SK-OV-3 ovarian it was over 100 µM; in the experiment on COLO 205 colon it was 35.1 µM; in the experiment on SF-295 CNS it was 98.1 µM. The TGI in the experiment on SNB-75 CNS, in the experiment on MDA-MB-435 and in the experiment on DU-145 prostate was over 100 µM in each case.
`Cc1n[nH]c(=O)n1/N=C/c1ccc(F)cc1`: the TGI in the experiment with NCI/ADR-RES ovarian, in the experiment with SN12C renal, in the experiment with SNB-19 CNS, in the experiment on BT-549 breast, with T-47D breast and in the experiment on OVCAR-8 ovarian was over 100 µM in each case. Also, the TGI in the experiment on SR leukemia, in the experiment with RXF 393 renal, in the experiment on SK-OV-3 ovarian, with COLO 205 colon, in the experiment on SF-295 CNS and with SNB-75 CNS was over 100 µM in each case. The TGI with MDA-MB-435 and in the experiment with DU-145 prostate was over 100 µM in each case.
Turning to `CC(=O)OC[C@]1(C)CCCC2(C)C1CCC1C=C(C)[C@H]3CCC12C3` (stereo partly drawn), the TGI in the experiment on NCI-H226 lung, with SN12C renal, in the experiment on SNB-19 CNS, with LOX IMVI melanoma, in the experiment on HT29 colon and in the experiment on OVCAR-8 ovarian was over 100 µM throughout. Further, the TGI with SR leukemia, in the experiment on IGROV1 ovarian, in the experiment with RXF 393 renal, in the experiment with SK-OV-3 ovarian, with COLO 205 colon and in the experiment on SF-295 CNS was over 100 µM throughout. For the same molecule, the TGI in the experiment with SNB-75 CNS amounted to 93.2 µM.
With `COc1cccc(/C=C2\CCCc3ccccc3C2=O)c1`, the TGI in the experiment on NCI-H226 lung turned out to be 49.3 µM; in the experiment with NCI/ADR-RES ovarian it was 53.3 µM; in the experiment on SN12C renal, 33 µM; in the experiment with SNB-19 CNS, 26.8 µM; with MCF7 breast, 51.6 µM; in the experiment with LOX IMVI melanoma, 38.9 µM. Further, the TGI in the experiment with HT29 colon is 52.3 µM; in the experiment with BT-549 breast, 39.3 µM; in the experiment with HS 578T breast, 41.4 µM; with OVCAR-8 ovarian it was 51.5 µM; in the experiment with SR leukemia, 31.3 µM; with IGROV1 ovarian, 46.3 µM. The TGI was 79.3 µM with SK-OV-3 ovarian; 35.6 µM with COLO 205 colon; 30.7 µM in the experiment with SF-295 CNS; over 100 µM with SNB-75 CNS; 30.1 µM in the experiment with MDA-MB-435; 60 µM in the experiment with DU-145 prostate.
Turning to `Nc1c2ccccc2nc2ccc3c(=O)cc(-c4ccccc4)oc3c12`, the TGI is 2.56 µM in the experiment on NCI-H226 lung; 2.05 µM in the experiment with MCF7 breast; 1.86 µM in the experiment with HT29 colon; 59.7 µM in the experiment on BT-549 breast; 1.89 µM in the experiment on OVCAR-8 ovarian; 2.23 µM in the experiment with SR leukemia. Further, the TGI in the experiment with RXF 393 renal was determined as 2.91 µM; in the experiment with SK-OV-3 ovarian, 3.48 µM; with COLO 205 colon, 1.35 µM; with SNB-75 CNS, 3.58 µM; with MDA-MB-435 it was 2.39 µM; in the experiment on DU-145 prostate, 3.74 µM.
